From patent US8153359B2, “Toxicity assay based on human blastocyst-derived stem cells and progenitor cells” (Cellartis AB, priority 2006, dated 2012)

What was measured:
hBS cells [1] = test: Cytotoxicity test, viability by ATP content (CellTiterGlo), hBS cells; format: cell-based, human; settings: hBS cells set to 1
hBS MPs [2] = test: Cytotoxicity test, viability by ATP content, hBS MPs (progenitor cells); format: cell-based, human; settings: relative to hBS cells = 1
[3] = system: human foreskin fibroblasts (hFFs); test: Cytotoxicity test, viability by ATP content, hFFs; format: cell-based; settings: relative to hBS cells = 1
hBS cells [4] = test: Cytotoxicity test, viability by Resazurin reduction, hBS cells; format: cell-based, human; settings: hBS cells set to 1
hBS MPs [5] = test: Cytotoxicity test, viability by Resazurin reduction, hBS MPs (progenitor cells); format: cell-based, human; settings: relative to hBS cells = 1
[6] = system: human foreskin fibroblasts (hFFs); test: Cytotoxicity test, viability by Resazurin reduction, hFFs; format: cell-based; settings: relative to hBS cells = 1
[7] = system: hBS cells, hBS MPs and hFFs; test: Cytotoxicity test, comparison over all cell types (hBS cells, progenitor cells, hFF); settings: FIG. 3

`CC1=C(/C=C/C(C)=C/C=C/C(C)=C\C(=O)O)C(C)(C)CCC1` [13CRA, 13-cis retinoic acid] was tested, and the “Ratio between the IC50 values measured using the ATP assay, hBS cells” value (hBS cells [1]) was 1, the “Ratio between the IC50 values measured using the ATP assay, Progenitors” value (hBS MPs [2]) was 0.000025 and the “Ratio between the IC50 values measured using the ATP assay, hFF” value [3] was >6. The “Ratio between the IC50 values measured using the Rezasurin assay, hBS cells” value (hBS cells [4]) was 1, the “Ratio between the IC50 values measured using the Rezasurin assay, Progenitors” value (hBS MPs [5]) was 0.000001 and the “Ratio between the IC50 values measured using the Rezasurin assay, hFF” value [6] was >7.

`O=c1[nH]cc(F)c(=O)[nH]1` [5-FU, 5-Fluorouracil] was tested, and the “Ratio between the IC50 values measured using the ATP assay, hBS cells” value (hBS cells [1]) was 1, the “Ratio between the IC50 values measured using the ATP assay, Progenitors” value (hBS MPs [2]) was 2 and the “Ratio between the IC50 values measured using the ATP assay, hFF” value [3] was 7. For the same molecule, the “Ratio between the IC50 values measured using the Rezasurin assay, hBS cells” value (hBS cells [4]) was 1, the “Ratio between the IC50 values measured using the Rezasurin assay, Progenitors” value (hBS MPs [5]) was 1 and the “Ratio between the IC50 values measured using the Rezasurin assay, hFF” value [6] was 2.5.

In the case of `O=C1NS(=O)(=O)c2ccccc21.[Na]` [Saccharin, Sodium Saccharin], the toxic reaction [7] is reported as “no toxic reaction”.

`CC1=C(/C=C/C(C)=C/C=C/C(C)=C/C(=O)O)C(C)(C)CCC1` [ATRA, all-trans retinoic acid] was tested, and the “Ratio between the IC50 values measured using the ATP assay, hBS cells” value (hBS cells [1]) was 1, the “Ratio between the IC50 values measured using the ATP assay, Progenitors” value (hBS MPs [2]) was 0.0001 and the “Ratio between the IC50 values measured using the ATP assay, hFF” value [3] was >4. The “Ratio between the IC50 values measured using the Rezasurin assay, hBS cells” value (hBS cells [4]) was 1, the “Ratio between the IC50 values measured using the Rezasurin assay, Progenitors” value (hBS MPs [5]) was 0.0005 and the “Ratio between the IC50 values measured using the Rezasurin assay, hFF” value [6] was >6.
